What was measured:
WT HSC70-NBD = target: T1, WT HSC70-NBD (Homo sapiens, UniProt P11142); assay: SPR binding to wild-type HSC70-NBD; conditions: for Kd / Kd WT HSC70-NBD: 25 °C; for LE (ligand efficiency): calculated using the SPR Kd on WT HSC70-NBD; for increase in affinity compared to parent fragment: SPR Kd, 23 vs 10, 24 vs 19
T1 construct: WT HSPA8 (HSC70) residues 1 to 381; GST (N, cleaved yes); made in house; host or cells: E. coli BL21-AI (expressed as described for FL-HSP72)
Protocol: (§1) SPR experiments were carried out using a Biacore T200 (GE Healthcare) at 25 °C. Amine coupling chemistry was used to immobilise the HSC70 NBD domain and S275W, S275F and S275A HSC70-NBD mutant proteins on a carboxymethyl-5′-dextran (CM5) sensor chip. The chip’s surface was activated with a 10 min injection of a 1:1 mixture of 100 mM N-hydroxysuccinimide and 400 mM 1-ethyl-3-(3-dimethylaminopropyl)-carbodiimide. […] The remaining activated groups on the surface were blocked with a 7 min injection of 1 M ethanolamine at pH 8.5. […] Flow cell one was left unmodified as the reference surface.
(§2) In addition, a DMSO correction curve, prepared as described in the GE manual, was used to correct the effects of the solvent on signal intensity. Raw SPR data from the single point screen was processed and analysed using Pipeline Pilot version 8.0.1.500[37]. Firstly, the reported binding level for each fragment was corrected by subtraction of the buffer blank.
(§3) The initial fragment hits were further investigated in a three-point concentration-response experiment against freshly immobilised WT HSC70-NBD and the S275W HSC70-NBD mutants using the same experimental protocol as for the primary screen. Compound dilutions of 50, 100 and 200 μM were generated using the ECHO 550.

S275W HSC70-NBD = target: T2, S275W HSC70-NBD (Homo sapiens, UniProt P11142, S275W); assay: SPR binding to S275W HSC70-NBD mutant
T2 construct: WT HSPA8 (HSC70) residues 1 to 381; GST (N, cleaved yes); made in house; host or cells: E. coli BL21-AI (expressed as described for FL-HSP72)
Protocol: as §1, §2, §3

S275F HSC70-NBD = target: T3, S275F HSC70-NBD (Homo sapiens, UniProt P11142, S275F); assay: SPR binding to S275F HSC70-NBD mutant
T3 construct: WT HSPA8 (HSC70) residues 1 to 381; GST (N, cleaved yes); made in house; host or cells: E. coli BL21-AI (expressed as described for FL-HSP72)
Protocol: SPR experiments were carried out using a Biacore T200 (GE Healthcare) at 25 °C. Amine coupling chemistry was used to immobilise the HSC70 NBD domain and S275W, S275F and S275A HSC70-NBD mutant proteins on a carboxymethyl-5′-dextran (CM5) sensor chip. The chip’s surface was activated with a 10 min injection of a 1:1 mixture of 100 mM N-hydroxysuccinimide and 400 mM 1-ethyl-3-(3-dimethylaminopropyl)-carbodiimide. The HSC70 proteins (70 μg/mL in 10 mM sodium acetate, 750 μM ADP, pH 5.0) were immobilised on the surface over a 10 min injection period. The remaining activated groups on the surface were blocked with a 7 min injection of 1 M ethanolamine at pH 8.5. For all the above procedures the flow rate was maintained at 10 μL/min and a 1x phosphate buffered saline running buffer (PBS running buffer: 10 mM NaHPO4/NaH2PO4 pH 7.4, 2.7 mM KCl, 137 mM NaCl) was used during immobilisation. Approximately ~13,000 response units (RU) of protein could be routinely captured on the CM5 chip on flow cells two to four. Flow cell one was left unmodified as the reference surface. Our in-house fragment library of 1962 fragments at a stock concentration of 100 mM in 100% (v/v) was screened. SPR screening plates were prepared by dispensing of 0.1 μL of each fragment in 384-well polypropylene V-bottomed plates (Greiner) using an ECHO 550 acoustic liquid dispenser (Labcyte) followed by addition of fresh DMSO and running buffer to give a final fragment concentration of 125 μM in 5% (v/v) DMSO in an assay volume of 80 μL.
The full fragment screen was carried out against freshly immobilised WT-HSC70 NBD and the S275W and S275F HSC70-NBD mutants, using the same experimental setting as for the clean screen and a final fragment concentration of 125 μM. Injections of running buffer and of 125 μM adenosine, which was used as a positive control to monitor the health of the protein, were carried out at intervals of 35 cycles throughout the screen. In addition, a DMSO correction curve, prepared as described in the GE manual, was used to correct the effects of the solvent on signal intensity. Raw SPR data from the single point screen was processed and analysed using Pipeline Pilot version 8.0.1.500[37]. Firstly, the reported binding level for each fragment was corrected by subtraction of the buffer blank. Secondly, the values were corrected for the molecular weight of each fragment and the binding was normalised to the binding level observed for the closest adenosine control. […] However, fragments with a binding level exceeding two times the theoretical Rmax were excluded, as we considered this an indication of superstoichiometric binding. Finally, fragments showing preferred binding to wild-type HSC70-NBD versus the HSC70-NBD mutants with a blocked adenine sub pocket were identified by plotting the binding levels of the fragments to wild-type HSC70-NBD against the binding levels of the respective mutant HSC70-NBD variants and added to the primary hit list. In total this procedure yielded 54 initial fragment hits.

HSC70-NBD S275A mutant = target: T4, HSC70-NBD S275A mutant (Homo sapiens, UniProt P11142, S275A); assay: SPR binding to S275A HSC70-NBD mutant; conditions: n = 3
T4 construct: WT HSPA8 (HSC70) residues 1 to 381; GST (N, cleaved yes); made in house; host or cells: E. coli BL21-AI (expressed as described for FL-HSP72)
Protocol: SPR experiments were carried out using a Biacore T200 (GE Healthcare) at 25 °C. Amine coupling chemistry was used to immobilise the HSC70 NBD domain and […], […] and […] HSC70-NBD mutant proteins on a carboxymethyl-5'-dextran (CM5) sensor chip. […] The remaining activated groups on the surface were blocked with a 7 min injection of 1 M ethanolamine at pH 8.5. For all the above procedures the flow rate was maintained at 10 μL/min and a 1x phosphate buffered saline running buffer (PBS running buffer: 10 mM NaHPO4/NaH2PO4 pH 7.4, 2.7 mM KCl, 137 mM NaCl) was used during immobilisation. Approximately ~13,000 response units (RU) of protein could be routinely captured on the CM5 chip on flow cells two to four. Flow cell one was left unmodified as the reference surface. Our in-house fragment library of 1962 fragments at a stock concentration of 100 mM in 100% (v/v) was screened. SPR screening plates were prepared by dispensing of 0.1 μL of each fragment in 384-well polypropylene V-bottomed plates (Greiner) using an ECHO 550 acoustic liquid dispenser (Labcyte) followed by addition of fresh DMSO and running buffer to give a final fragment concentration of 125 μM in 5% (v/v) DMSO in an assay volume of 80 μL. The initial fragment hits were further investigated in a three-point concentration-response experiment against freshly immobilised WT HSC70-NBD and the […] HSC70-NBD mutants using the same experimental protocol as for the primary screen. Compound dilutions of 50, 100 and 200 μM were generated using the ECHO 550. A confirmed hit was defined as a fragment giving greater than 10% response compared to adenosine and these were prioritised on the basis of their concentration response, ratio of experimental and theoretical Rmax, and shape of the sensorgrams, and expected fast on/fast off binding kinetics. […] HSC70-NBD mutant. […] Nucleotides were dissolved in double distilled water to give 10 mM stock solutions, then diluted 40X with DMSO and tested using a concentration range between 0.0625 μM and 2.5 μM.

[1] = SPR, mean ± SD, No binding = binding level ≤10RU at 1mM
[2] = SPR, mean ± standard deviation or standard error, triplicate unless marked duplicate/single

T4 sequence (P11142 1-381 S275A): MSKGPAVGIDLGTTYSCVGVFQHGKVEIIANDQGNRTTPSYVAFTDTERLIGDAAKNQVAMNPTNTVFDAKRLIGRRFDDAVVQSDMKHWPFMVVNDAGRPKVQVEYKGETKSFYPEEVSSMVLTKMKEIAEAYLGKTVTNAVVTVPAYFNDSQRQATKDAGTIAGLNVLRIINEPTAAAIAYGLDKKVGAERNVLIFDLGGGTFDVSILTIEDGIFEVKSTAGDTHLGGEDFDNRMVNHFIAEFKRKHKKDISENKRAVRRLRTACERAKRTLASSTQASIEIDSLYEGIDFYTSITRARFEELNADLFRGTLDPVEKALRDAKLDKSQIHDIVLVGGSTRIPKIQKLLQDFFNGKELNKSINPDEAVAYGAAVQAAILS
T2 sequence (P11142 1-381 S275W): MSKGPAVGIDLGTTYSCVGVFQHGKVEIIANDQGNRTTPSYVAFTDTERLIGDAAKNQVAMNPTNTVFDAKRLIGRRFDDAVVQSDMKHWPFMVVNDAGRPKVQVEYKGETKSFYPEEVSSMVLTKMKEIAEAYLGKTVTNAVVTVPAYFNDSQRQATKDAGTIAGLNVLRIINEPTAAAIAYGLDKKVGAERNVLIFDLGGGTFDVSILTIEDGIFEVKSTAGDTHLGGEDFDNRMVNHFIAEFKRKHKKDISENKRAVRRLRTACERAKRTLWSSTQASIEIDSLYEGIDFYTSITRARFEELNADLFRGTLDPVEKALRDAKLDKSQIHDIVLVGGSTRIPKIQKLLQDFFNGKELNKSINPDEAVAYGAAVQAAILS
T3 sequence (P11142 1-381 S275F): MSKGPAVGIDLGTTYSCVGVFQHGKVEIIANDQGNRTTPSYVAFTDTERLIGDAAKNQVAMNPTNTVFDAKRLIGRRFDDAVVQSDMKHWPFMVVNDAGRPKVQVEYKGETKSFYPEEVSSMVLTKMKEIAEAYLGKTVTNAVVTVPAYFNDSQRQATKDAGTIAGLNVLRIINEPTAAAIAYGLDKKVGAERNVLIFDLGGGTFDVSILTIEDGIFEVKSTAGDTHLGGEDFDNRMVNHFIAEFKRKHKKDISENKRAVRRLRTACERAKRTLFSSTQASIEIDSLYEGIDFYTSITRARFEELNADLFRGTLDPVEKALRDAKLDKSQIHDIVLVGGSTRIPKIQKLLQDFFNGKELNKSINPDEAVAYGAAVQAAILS
T1 sequence (P11142 1-381): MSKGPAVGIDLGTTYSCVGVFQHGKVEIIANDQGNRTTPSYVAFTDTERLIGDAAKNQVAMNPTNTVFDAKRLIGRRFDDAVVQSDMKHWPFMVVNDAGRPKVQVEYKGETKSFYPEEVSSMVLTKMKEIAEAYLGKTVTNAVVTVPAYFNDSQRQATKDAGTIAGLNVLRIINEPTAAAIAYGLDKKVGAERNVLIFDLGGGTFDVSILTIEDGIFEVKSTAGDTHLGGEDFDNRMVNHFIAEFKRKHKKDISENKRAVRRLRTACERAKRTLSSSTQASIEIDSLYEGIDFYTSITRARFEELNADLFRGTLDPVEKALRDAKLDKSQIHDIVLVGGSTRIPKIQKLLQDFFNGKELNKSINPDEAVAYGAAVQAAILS

| SMILES | LE (ligand efficiency) (WT HSC70-NBD) | Kd (WT HSC70-NBD; [2]) | also measured |
| --- | --- | --- | --- |
| Nc1ncnc2c1ncn2[C@@H]1O[C@H](COP(=O)(O)OP(=O)(O)O)[C@@H](O)[C@H]1O [ADP, reference compound] | 0.31 | – | Kd (WT HSC70-NBD; [1]): 0.71 ± 0.32 µM; binding to S275W HSC70-NBD mutant (in words) (S275W HSC70-NBD): abolished binding; binding to S275F HSC70-NBD mutant (in words) (S275F HSC70-NBD): abolished binding; Kd (HSC70-NBD S275A mutant): 5.6 ± 2.4 µM |
| Nc1ncnc2c1ncn2[C@@H]1O[C@H](COP(=O)(O)OP(=O)(O)OP(=O)(O)O)[C@@H](O)[C@H]1O [ATP, reference compound] | 0.29 | – | Kd (WT HSC70-NBD; [1]): 0.33 µM; Kd (HSC70-NBD S275A mutant): 2.1 µM |
| Nc1ncnc2c1ncn2[C@@H]1O[C@H](CO)[C@@H](O)[C@H]1O [Adenosine, adenosine, reference compound] | 0.28 | – | Kd (WT HSC70-NBD; [1]): 165 µM; binding to S275W HSC70-NBD mutant (in words) (S275W HSC70-NBD): abolished binding; binding to S275F HSC70-NBD mutant (in words) (S275F HSC70-NBD): abolished binding; Kd (HSC70-NBD S275A mutant): 1800 ± 520 µM |
| Nc1ccn([C@@H]2O[C@H](COP(=O)(O)OP(=O)(O)O)[C@@H](O)[C@H]2O)c(=O)n1 [CDP, reference compound] | – | – | Kd WT HSC70-NBD (WT HSC70-NBD; [1]): No binding |
| Nc1ncnc2c1nc(N)n2[C@@H]1O[C@H](CO)[C@@H](O)[C@H]1O [Compound 4, 8-aminoadenosine, reference compound] | 0.35 | – | Kd (WT HSC70-NBD; [1]): 8 µM |
| Nc1ncnc2[nH]cnc12 [Compound 5, adenine, reference compound] | – | – | Kd WT HSC70-NBD (WT HSC70-NBD; [1]): No binding |
| O=c1[nH]cnc2c1oc1ccccc12 [Compound 7] | 0.27 | 1700 ± 600 µM | binding to S275W HSC70-NBD mutant (in words) (S275W HSC70-NBD): reduced binding and a low degree of saturation; binding to S275F HSC70-NBD mutant (in words) (S275F HSC70-NBD): reduced binding and a low degree of saturation |
| Cc1nc(N)c2ccccc2n1 [Compound 11] | – | – | binding to WT HSC70-NBD (in words) (WT HSC70-NBD; SPR): no detectable affinity |
| OC[C@H]1C[C@@H](Nc2ncnc3ccccc23)[C@H](O)[C@@H]1O [Compound 23] | – | – | increase in affinity compared to parent fragment (WT HSC70-NBD): 7 fold; Kd (WT HSC70-NBD; [1]): 310 ± 100 µM |
| OC[C@H]1C[C@@H](Nc2ncnc3cccc(OCc4ccc(Cl)c(Cl)c4)c23)[C@H](O)[C@@H]1O [Compound 27] | 0.14 | 850 µM | Kd (S275W HSC70-NBD; single measurement): 5 mM |
| OC[C@H]1C[C@@H](Nc2ncnc3cccc(OCc4ccccc4)c23)[C@H](O)[C@@H]1O [Compound 28] | 0.17 | 370 µM | Kd S275W HSC70-NBD (S275W HSC70-NBD; single measurement): No binding |
| N#Cc1ccc(COC[C@H]2C[C@@H](Nc3ncnc4cccc(OCc5ccccc5)c34)[C@H](O)[C@@H]2O)cc1 [Compound 29] | 0.10 | 2000 µM | Kd (S275W HSC70-NBD; single measurement): 2 mM |
| Nc1nc2c(ncn2[C@@H]2O[C@H](COP(=O)(O)OP(=O)(O)O)[C@@H](O)[C@H]2O)c(=O)[nH]1 [GDP, reference compound] | 0.18 | – | Kd (WT HSC70-NBD; [1]): 223 µM |
| Cc1cn([C@H]2C[C@H](O)[C@@H](COP(=O)(O)OP(=O)(O)O)O2)c(=O)[nH]c1=O [TDP, reference compound] | – | – | Kd WT HSC70-NBD (WT HSC70-NBD; [1]): No binding |
| O=c1ccn([C@@H]2O[C@H](COP(=O)(O)OP(=O)(O)O)[C@@H](O)[C@H]2O)c(=O)[nH]1 [UDP, reference compound] | – | – | Kd WT HSC70-NBD (WT HSC70-NBD; [1]): No binding |

Continued, in another order:

| LE (ligand efficiency) (WT HSC70-NBD) | Kd (WT HSC70-NBD; [2]) | SMILES | also measured |
| --- | --- | --- | --- |
| – | 3500 ± 600 µM | CN1N=C(N)c2c[nH]c3ncnc1c23 [Compound 3] | – |
| 0.34 | – | Nc1nc2ncnc(N)c2[nH]1 [Compound 6, 8-aminoadenine, reference compound] | Kd (WT HSC70-NBD; [1]): 2100 µM |
| 0.33 | 1400 ± 100 µM | Cc1ccc2ncnc(N)c2c1 [Compound 8] | binding to S275W HSC70-NBD mutant (in words) (S275W HSC70-NBD): reduced binding and a low degree of saturation; binding to S275F HSC70-NBD mutant (in words) (S275F HSC70-NBD): reduced binding and a low degree of saturation |
| – | 2100 µM | Nc1ncnc2ccccc12 [Compound 10] | – |
| – | 12000 µM | Cc1cccc2ncnc(N)c12 [Compound 12] | – |
| – | 800 µM | Cc1ccc2c(N)ncnc2c1 [Compound 13, 7-methyl 4-aminoquinazoline] | – |
| – | 2900 µM | Cc1cccc2c(N)ncnc12 [Compound 14] | – |
| – | 830 µM | COc1cccc2ncnc(N)c12 [Compound 15] | – |
| – | 1000 µM | COc1ccc2ncnc(N)c2c1 [Compound 16, 6-methoxy 4-aminoquinazoline] | – |
| – | 850 µM | COc1ccc2c(N)ncnc2c1 [Compound 17] | – |
| – | 2000 µM | COc1cccc2c(N)ncnc12 [Compound 18] | – |
| – | 830 µM | COc1cc2ncnc(N)c2cc1OC [Compound 19] | – |
| – | 4800 ± 1100 µM | CNc1ncnc2ccccc12 [Compound 20] | – |
| – | 250 µM | COc1cc2ncnc(N[C@@H]3C[C@H](CO)[C@@H](O)[C@H]3O)c2cc1OC [Compound 24] | increase in affinity compared to parent fragment (WT HSC70-NBD): three-fold |
| – | 1040 µM | COc1cccc2ncnc(N[C@@H]3C[C@H](CO)[C@@H](O)[C@H]3O)c12 [Compound 26] | – |
